pIC50: −log10 of the molar value. Converted amounts (≈) assume the structure as drawn.
Columns and labels:
Cryptococcus neoformans = test: Antifungal activity against Cryptococcus neoformans clinical isolate after 24 to 48 hrs by standard broth microdilution method; type: functional
Pseudomonas aeruginosa = test: Antimicrobial activity against Pseudomonas aeruginosa ATCC BAA-427 after 24 hrs by standard broth microdilution method; type: functional; settings: ATCC BAA-427, 24 h
[1] = Selectivity index, ratio of IC50 for african green monkey Vero cells to IC50 for chloroquine-sensitive Plasmodium falciparum 3D7; type: toxicity, cell-based; settings: read-out: Ratio IC50
Staphylococcus aureus = test: Antimicrobial activity against Staphylococcus aureus ATCC 25923 after 24 hrs by standard broth microdilution method; type: functional; settings: ATCC 25923, 24 h
[2] = tested on: Trichophyton mentagrophytes; test: Antifungal activity against Trichophyton mentagrophytes clinical isolate after 72 to 96 hrs by standard broth microdilution method; type: functional
Klebsiella pneumoniae = test: Antimicrobial activity against Klebsiella pneumoniae ATCC 27736 after 24 hrs by standard broth microdilution method; type: functional; settings: ATCC 27736, 24 h
Escherichia coli = test: Antimicrobial activity against Escherichia coli ATCC 9637 after 24 hrs by standard broth microdilution method; type: functional; settings: ATCC 9637, 24 h
Plasmodium falciparum [3] = test: Antiplasmodial activity against chloroquine-sensitive Plasmodium falciparum 3D7 infected after 72 hrs by Malaria SYBR Green I-staining based fluorescence assay; type: functional, organism-based; settings: 3D7, 72 h
Candida parapsilosis = test: Antifungal activity against Candida parapsilosis ATCC […] after 72 to 96 hrs by standard broth microdilution method; type: functional; settings: Lodderomyces parapsilosis
Plasmodium falciparum [4] = test: Antiplasmodial activity against chloroquine-resistant Plasmodium falciparum K1 infected after 72 hrs by Malaria SYBR Green I-staining based fluorescence assay; type: functional, organism-based; settings: K1, 72 h
Aspergillus fumigatus = test: Antifungal activity against Aspergillus fumigatus clinical isolate after 72 to 96 hrs by standard broth microdilution method; type: functional
Sporothrix schenckii = test: Antifungal activity against Sporothrix schenckii clinical isolate after 72 to 96 hrs by standard broth microdilution method; type: functional
Candida albicans = test: Antifungal activity against Candida albicans clinical isolate after 24 to 48 hrs by standard broth microdilution method; type: functional

SMILES	MIC (Cryptococcus neoformans)	MIC (Pseudomonas aeruginosa)	selectivity ratio [1]	MIC (Staphylococcus aureus)	MIC [2]	MIC (Klebsiella pneumoniae)	MIC (Escherichia coli)	pIC50 (Plasmodium falciparum [3])	MIC (Candida parapsilosis)	pIC50 (Plasmodium falciparum [4])	MIC (Aspergillus fumigatus)	MIC (Sporothrix schenckii)	MIC (Candida albicans)
COC(=O)/C(C)=C/c1ccc(Oc2ccccc2N/C(=N/c2ccc(Cl)cc2)NCCCNc2ccnc3cc(Cl)ccc23)cc1	50 µg/mL (≈ 76.4 µM)	> 50 µg/mL	32.7	1.56 µg/mL (≈ 2.38 µM)	25 µg/mL (≈ 38.2 µM)	> 50 µg/mL	12.5 µg/mL (≈ 19.1 µM)	7.13	> 50 µg/mL	6.58	> 50 µg/mL	25 µg/mL (≈ 38.2 µM)	50 µg/mL (≈ 76.4 µM)
COc1ccc(Oc2ccc(N/C(=N/c3cccc(Cl)c3)NCCCCNc3ccnc4cc(Cl)ccc34)cc2)cc1	12.5 µg/mL (≈ 20.8 µM)	> 50 µg/mL	61.2	6.25 µg/mL (≈ 10.4 µM)	6.25 µg/mL (≈ 10.4 µM)	25 µg/mL (≈ 41.6 µM)	25 µg/mL (≈ 41.6 µM)	7.12	6.25 µg/mL (≈ 10.4 µM)	6.83	25 µg/mL (≈ 41.6 µM)	6.25 µg/mL (≈ 10.4 µM)	6.25 µg/mL (≈ 10.4 µM)
Clc1ccc(Cl)c(Oc2ccccc2N/C(=N/c2ccccc2)NCCNc2ccnc3cc(Cl)ccc23)c1	> 50 µg/mL	> 50 µg/mL	173	12.5 µg/mL (≈ 21.7 µM)	25 µg/mL (≈ 43.3 µM)	50 µg/mL (≈ 86.7 µM)	25 µg/mL (≈ 43.3 µM)	7.37	50 µg/mL (≈ 86.7 µM)	7.02	> 50 µg/mL	50 µg/mL (≈ 86.7 µM)	50 µg/mL (≈ 86.7 µM)
COc1ccc(Oc2ccc(N/C(=N/c3ccccc3)NCCCCNc3ccnc4cc(Cl)ccc34)cc2)cc1	25 µg/mL (≈ 44.2 µM)	> 50 µg/mL	49	6.25 µg/mL (≈ 11 µM)	12.5 µg/mL (≈ 22.1 µM)	25 µg/mL (≈ 44.2 µM)	50 µg/mL (≈ 88.3 µM)	7.07	12.5 µg/mL (≈ 22.1 µM)	7.04	25 µg/mL (≈ 44.2 µM)	12.5 µg/mL (≈ 22.1 µM)	12.5 µg/mL (≈ 22.1 µM)
COc1ccc(Oc2ccccc2N/C(=N/c2cccc(Cl)c2)NCCCCNc2ccnc3cc(Cl)ccc23)cc1	50 µg/mL (≈ 83.3 µM)	> 50 µg/mL	176	3.12 µg/mL (≈ 5.2 µM)	12.5 µg/mL (≈ 20.8 µM)	50 µg/mL (≈ 83.3 µM)	12.5 µg/mL (≈ 20.8 µM)	7.43	50 µg/mL (≈ 83.3 µM)	< 6.00	> 50 µg/mL	12.5 µg/mL (≈ 20.8 µM)	12.5 µg/mL (≈ 20.8 µM)
COC(=O)/C(C)=C/c1ccc(Oc2ccccc2N/C(=N/c2cccc(Cl)c2)NCCCCNc2ccnc3cc(Cl)ccc23)cc1	> 50 µg/mL	> 50 µg/mL	80.7	3.12 µg/mL (≈ 4.67 µM)	> 50 µg/mL	> 50 µg/mL	12.5 µg/mL (≈ 18.7 µM)	7.51	> 50 µg/mL	< 6.10	> 50 µg/mL	> 50 µg/mL	50 µg/mL (≈ 74.8 µM)
Clc1ccc(Cl)c(Oc2ccccc2N/C(=N/c2ccccc2)NCCCNc2ccnc3cc(Cl)ccc23)c1	25 µg/mL (≈ 42.3 µM)	> 50 µg/mL	116	3.12 µg/mL (≈ 5.28 µM)	12.5 µg/mL (≈ 21.2 µM)	12.5 µg/mL (≈ 21.2 µM)	12.5 µg/mL (≈ 21.2 µM)	7.13	50 µg/mL (≈ 84.6 µM)	6.75	> 50 µg/mL	12.5 µg/mL (≈ 21.2 µM)	12.5 µg/mL (≈ 21.2 µM)
Clc1cccc(/N=C(\NCCCCNc2ccnc3cc(Cl)ccc23)Nc2ccc(Oc3cc(Cl)ccc3Cl)cc2)c1	12.5 µg/mL (≈ 19.5 µM)	> 50 µg/mL	26.3	6.25 µg/mL (≈ 9.77 µM)	6.25 µg/mL (≈ 9.77 µM)	50 µg/mL (≈ 78.2 µM)	6.25 µg/mL (≈ 9.77 µM)	6.90	6.25 µg/mL (≈ 9.77 µM)	< 6.11	25 µg/mL (≈ 39.1 µM)	3.12 µg/mL (≈ 4.88 µM)	3.12 µg/mL (≈ 4.88 µM)
COc1ccc(Oc2ccc(N/C(=N/c3ccc(Cl)cc3)NCCNc3ccnc4cc(Cl)ccc34)cc2)cc1	25 µg/mL (≈ 43.7 µM)	> 50 µg/mL	122	6.25 µg/mL (≈ 10.9 µM)	12.5 µg/mL (≈ 21.8 µM)	12.5 µg/mL (≈ 21.8 µM)	6.25 µg/mL (≈ 10.9 µM)	7.16	12.5 µg/mL (≈ 21.8 µM)	6.98	25 µg/mL (≈ 43.7 µM)	6.25 µg/mL (≈ 10.9 µM)	12.5 µg/mL (≈ 21.8 µM)
COC(=O)/C(C)=C/c1ccc(Oc2ccc(N/C(=N/c3cccc(Cl)c3)NCCNc3ccnc4cc(Cl)ccc34)cc2)cc1	50 µg/mL (≈ 78.1 µM)	50 µg/mL (≈ 78.1 µM)	71.7	6.25 µg/mL (≈ 9.76 µM)	25 µg/mL (≈ 39 µM)	12.5 µg/mL (≈ 19.5 µM)	12.5 µg/mL (≈ 19.5 µM)	7.31	50 µg/mL (≈ 78.1 µM)	6.91	> 50 µg/mL	25 µg/mL (≈ 39 µM)	50 µg/mL (≈ 78.1 µM)
Clc1ccc(/N=C(\NCCNc2ccnc3cc(Cl)ccc23)Nc2ccccc2Oc2cc(Cl)ccc2Cl)cc1	> 50 µg/mL	> 50 µg/mL	16.5	6.25 µg/mL (≈ 10.2 µM)	50 µg/mL (≈ 81.8 µM)	> 50 µg/mL	12.5 µg/mL (≈ 20.4 µM)	7.24	> 50 µg/mL	< 6.10	> 50 µg/mL	25 µg/mL (≈ 40.9 µM)	25 µg/mL (≈ 40.9 µM)
COC(=O)/C(C)=C/c1ccc(Oc2ccc(N/C(=N/c3ccc(Cl)cc3)NCCCCNc3ccnc4cc(Cl)ccc34)cc2)cc1	6.25 µg/mL (≈ 9.35 µM)	> 50 µg/mL	145	12.5 µg/mL (≈ 18.7 µM)	12.5 µg/mL (≈ 18.7 µM)	50 µg/mL (≈ 74.8 µM)	25 µg/mL (≈ 37.4 µM)	7.25	12.5 µg/mL (≈ 18.7 µM)	6.15	50 µg/mL (≈ 74.8 µM)	6.25 µg/mL (≈ 9.35 µM)	6.25 µg/mL (≈ 9.35 µM)
COC(=O)/C(C)=C/c1ccc(Oc2ccc(N/C(=N/c3cccc(Cl)c3)NCCCNc3ccnc4cc(Cl)ccc34)cc2)cc1	> 50 µg/mL	> 50 µg/mL	21.9	6.25 µg/mL (≈ 9.55 µM)	50 µg/mL (≈ 76.4 µM)	50 µg/mL (≈ 76.4 µM)	6.25 µg/mL (≈ 9.55 µM)	7.11	50 µg/mL (≈ 76.4 µM)	7.15	> 50 µg/mL	50 µg/mL (≈ 76.4 µM)	> 50 µg/mL
COC(=O)/C(C)=C/c1ccc(Oc2ccccc2N/C(=N/c2ccc(Cl)cc2)NCCCCNc2ccnc3cc(Cl)ccc23)cc1	50 µg/mL (≈ 74.8 µM)	> 50 µg/mL	102	1.56 µg/mL (≈ 2.33 µM)	6.25 µg/mL (≈ 9.35 µM)	> 50 µg/mL	12.5 µg/mL (≈ 18.7 µM)	7.01	> 50 µg/mL	7.38	> 50 µg/mL	6.25 µg/mL (≈ 9.35 µM)	50 µg/mL (≈ 74.8 µM)
COC(=O)/C(C)=C/c1ccc(Oc2ccc(N/C(=N/c3ccc(Cl)cc3)NCCCNc3ccnc4cc(Cl)ccc34)cc2)cc1	12.5 µg/mL (≈ 19.1 µM)	> 50 µg/mL	100	12.5 µg/mL (≈ 19.1 µM)	12.5 µg/mL (≈ 19.1 µM)	50 µg/mL (≈ 76.4 µM)	12.5 µg/mL (≈ 19.1 µM)	7.41	12.5 µg/mL (≈ 19.1 µM)	6.70	50 µg/mL (≈ 76.4 µM)	6.25 µg/mL (≈ 9.55 µM)	12.5 µg/mL (≈ 19.1 µM)
Clc1ccc(/N=C(\NCCCCNc2ccnc3cc(Cl)ccc23)Nc2ccccc2Oc2cc(Cl)ccc2Cl)cc1	> 50 µg/mL	> 50 µg/mL	11	> 50 µg/mL	> 50 µg/mL	> 50 µg/mL	> 50 µg/mL	6.18	> 50 µg/mL	6.82	> 50 µg/mL	> 50 µg/mL	> 50 µg/mL
Clc1ccc(/N=C(\NCCCNc2ccnc3cc(Cl)ccc23)Nc2ccccc2Oc2cc(Cl)ccc2Cl)cc1	25 µg/mL (≈ 40 µM)	> 50 µg/mL	112	6.25 µg/mL (≈ 9.99 µM)	> 50 µg/mL	> 50 µg/mL	12.5 µg/mL (≈ 20 µM)	7.06	50 µg/mL (≈ 80 µM)	< 6.10	> 50 µg/mL	25 µg/mL (≈ 40 µM)	6.25 µg/mL (≈ 9.99 µM)
COC(=O)/C(C)=C/c1ccc(Oc2ccc(N/C(=N/c3ccccc3)NCCCNc3ccnc4cc(Cl)ccc34)cc2)cc1	6.25 µg/mL (≈ 10.1 µM)	> 50 µg/mL	84.3	25 µg/mL (≈ 40.3 µM)	12.5 µg/mL (≈ 20.2 µM)	> 50 µg/mL	50 µg/mL (≈ 80.6 µM)	7.11	25 µg/mL (≈ 40.3 µM)	< 6.10	25 µg/mL (≈ 40.3 µM)	6.25 µg/mL (≈ 10.1 µM)	6.25 µg/mL (≈ 10.1 µM)
Clc1ccc(Cl)c(Oc2ccc(N/C(=N/c3ccccc3)NCCNc3ccnc4cc(Cl)ccc34)cc2)c1	6.25 µg/mL (≈ 10.8 µM)	> 50 µg/mL	109	12.5 µg/mL (≈ 21.7 µM)	6.25 µg/mL (≈ 10.8 µM)	> 50 µg/mL	6.25 µg/mL (≈ 10.8 µM)	7.40	3.12 µg/mL (≈ 5.41 µM)	< 6.06	12.5 µg/mL (≈ 21.7 µM)	3.12 µg/mL (≈ 5.41 µM)	3.12 µg/mL (≈ 5.41 µM)
COC(=O)/C(C)=C/c1ccc(Oc2ccccc2N/C(=N/c2cccc(Cl)c2)NCCNc2ccnc3cc(Cl)ccc23)cc1	25 µg/mL (≈ 39 µM)	> 50 µg/mL	234	3.12 µg/mL (≈ 4.87 µM)	25 µg/mL (≈ 39 µM)	3.12 µg/mL (≈ 4.87 µM)	50 µg/mL (≈ 78.1 µM)	7.46	25 µg/mL (≈ 39 µM)	6.31	50 µg/mL (≈ 78.1 µM)	25 µg/mL (≈ 39 µM)	25 µg/mL (≈ 39 µM)
Clc1cccc(/N=C(\NCCNc2ccnc3cc(Cl)ccc23)Nc2ccccc2Oc2cc(Cl)ccc2Cl)c1	> 50 µg/mL	> 50 µg/mL	56.2	1.56 µg/mL (≈ 2.55 µM)	50 µg/mL (≈ 81.8 µM)	> 50 µg/mL	6.25 µg/mL (≈ 10.2 µM)	7.16	50 µg/mL (≈ 81.8 µM)	6.37	> 50 µg/mL	50 µg/mL (≈ 81.8 µM)	50 µg/mL (≈ 81.8 µM)

From ChEMBL document CHEMBL3232804, “Synthesis and evaluation of new diaryl ether and quinoline hybrids as potential antiplasmodial and antimicrobial agents” (Bioorg Med Chem Lett, 2014)
